Results on 10 compounds are retold here after PubChem BioAssay (NCI).

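Following 48 hours of exposure in 96-well plates, responses at five concentrations were used to interpolate endpoints linearly. GI50 = concentration required for 50% inhibition of growth. The concentration for full growth arrest is given as TGI.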

Among the test systems are SN12K1 renal; HOP-18 NSCLC; DMS 273 small cell lung; SNB-78 CNS; P388 leukemia; M19-MEL melanoma; DLD-1 colon; DMS 114 small cell lung; P388/ADR leukemia; RXF-631 renal.
Common to all, as to test: NCI tumour cell line growth inhibition, 48 h

Turning to `Nc1cc(O)c2cc(N=Nc3ccc(N=Nc4ccc(N=Nc5ccc6cc(S(=O)(=O)O)cc(S(=O)(=O)O)c6c5)c5ccccc45)c4cc(S(=O)(=O)O)ccc34)c(S(=O)(=O)O)cc2c1`, the TGI in the test on SN12K1 renal, in the test on HOP-18 NSCLC, in the test on DMS 273 small cell lung, in the test on SNB-78 CNS, in the test on P388 leukemia and with M19-MEL melanoma was more than 100 µM throughout. Moreover, the TGI in the test with DLD-1 colon was more than 100 µM.
As to `NS(=O)(=O)c1cc2c(cc1Cl)NC(C(=O)NNC(=O)c1ccncc1)=NS2(=O)=O`, the TGI in the test on HOP-18 NSCLC, in the test with DMS 273 small cell lung, in the test with M19-MEL melanoma, in the test with DLD-1 colon and with DMS 114 small cell lung was more than 100 µM in each case.
Consider `NS(=O)(=O)C1CCCCC1C(=O)NNC(=O)C(=O)Nc1nc(=S)[nH][nH]1` (stereo not given), for which the TGI with DMS 273 small cell lung, with SNB-78 CNS, with M19-MEL melanoma, in the test on DLD-1 colon and in the test with DMS 114 small cell lung was more than 100 µM throughout.
As to `CCCCCCCCCCCC1=C(O)C(=O)C=C(O)C1=O`, the TGI in the test with SN12K1 renal worked out at 30.3 µM; in the test on HOP-18 NSCLC it was 14.6 µM; in the test on DMS 273 small cell lung it was 15.7 µM; with SNB-78 CNS, 149 µM; in the test with DLD-1 colon, 51.9 µM; in the test on P388/ADR leukemia, 250 µM. For the same compound, the TGI in the test with DMS 114 small cell lung came out at 11.9 µM.
As for `Cn1c(=O)c(C#N)c(O)c2cc3ccccc3nc21`, the TGI in the test on HOP-18 NSCLC, in the test on DMS 273 small cell lung, in the test with SNB-78 CNS, with M19-MEL melanoma, in the test with DLD-1 colon and with DMS 114 small cell lung was more than 100 µM each time.
As to `Cc1c(N(Cc2ccccc2)Cc2ccccc2)nc(S(C)(=O)=O)nc1S(C)(=O)=O`, the TGI in the test with HOP-18 NSCLC was found to be 17.3 µM; with DMS 273 small cell lung, 4.29 µM; in the test on SNB-78 CNS it was 4.81 µM; in the test with M19-MEL melanoma, 2.89 µM; with DLD-1 colon it was 3.59 µM; in the test on DMS 114 small cell lung, 3.24 µM.
Take `COC1=C(C)C(=O)C2=C(C1=O)C1C3CC4=C(C(=O)C(OC)=C(C)C4=O)C(CNC(=O)C(C)=O)N3C(C#N)C(C2)N1C` (stereo not given): the GI50 in the test on HOP-18 NSCLC was 0.000212 µM; in the test with DMS 273 small cell lung it was 0.0259 nM; in the test on RXF-631 renal it was 0.000385 µM; in the test with SNB-78 CNS, 0.0579 nM; in the test with M19-MEL melanoma, 0.0946 nM; with DLD-1 colon, 0.0404 nM. For the same compound, the GI50 in the test with DMS 114 small cell lung was 0.0215 nM. The TGI with DLD-1 colon was 0.278 µM; in the test on P388/ADR leukemia, 0.349 µM.
In the case of `O=[N+]([O-])c1cccc2c1[nH]c1c(-c3ccccc3)nccc12`, the TGI in the test with SN12K1 renal was 8.11 µM; in the test on HOP-18 NSCLC, 2.82 µM; with DMS 273 small cell lung it was 7.58 µM; in the test with P388 leukemia, 9.75 µM; in the test with M19-MEL melanoma, 6.14 µM; in the test with DLD-1 colon it was more than 48.9 µM. Moreover, the TGI amounted to 11.7 µM in the test on P388/ADR leukemia and 5.75 µM in the test on DMS 114 small cell lung.
For `Cc1ccc(C)c(C(=O)CC2OC(O)C(Cl)C2Cl)c1` (stereo not given), the TGI in the test with HOP-18 NSCLC was more than 100 µM; in the test with DMS 273 small cell lung, more than 100 µM; with SNB-78 CNS it was more than 100 µM; in the test with M19-MEL melanoma, more than 100 µM; with DLD-1 colon, 34.4 µM; in the test with DMS 114 small cell lung, more than 100 µM.
On to `COc1ccc(Sc2ccccc2[N+](=O)[O-])cc1`, for which the TGI with HOP-18 NSCLC was more than 100 µM; in the test on DMS 273 small cell lung, more than 100 µM; in the test on RXF-631 renal it was more than 100 µM; in the test on SNB-78 CNS it was 98.4 µM; with M19-MEL melanoma, more than 100 µM; in the test on DLD-1 colon, more than 100 µM.
